Experimental data published in patent publication US5621102A, “Process for preparing enantiomerically pure xanthine derivatives” (Cell Therapeutics, Inc., priority 1995, dated 1997).

Legend:
IL-6 = assay: mouse plasma IL-6 ELISA after endotoxin; format: in vivo, mice
Experimental: FIG. 8 illustrates data from mouse plasma IL-6 ELISA measurements. Data are compiled from the average of duplicate ELISA measurements from a single experiment with each point representing pooled plasma from three mice.
For ELISA measurements of cytokine levels in plasma, blood was collected by retro-orbital or cardiac puncture of anesthetized mice, immediately centrifuged and the EDTA plasma stored at -70° C. Particulate free plasma was thawed on ice and cytokine levels determined utilizing commercial ELISA assays with normal mouse plasma used to generate standard curves. Murine tumor necrosis factor-α and interleukin-1α kits were purchased from Genzyme (Cambridge, Mass.) and Endogen (Boston, Mass.), respectively. Each data point was an average of two ELISA measurements made from EDTA serum pooled from three mice. The data summarized in Table 3 were compiled from two independent experiments; data from Table 4 and 5 were from single experiments of three mice per data point.
In particular, peak levels observed at 6, 12 and 18 hours post endotoxin were decreased 1.2, 4.3 and 3.2-fold, respectively. Finally, IL-6 measurements were made in a similar manner (Table 6, FIG. 8).

[1] = test system: adhesion of U937 cells to activated HUVEC; assay: adhesion of U937 cells to activated HUVEC (BCECF fluorescence); format: cell-based, human; settings: 250 μM
Experimental: HUVEC were stimulated with either IL-1-α (100 ng/ml); TNF-α (10 ng/ml) or LPS ([…]) with or without the addition of 250 μM CT1501R one hour prior to addition of the stimulus. Twelve hours later, the cells were assayed for adhesion of BCECF-labeled U937 cells. FIG. 21 is the relative BCECF fluorescence (+/-SD) for each of the treatment groups.
Murine peritoneal exudate cell macrophages (PEC) were isolated by perfusion of mouse peritoneum and plated into 96-well trays at 5×10^5 cells per well. Cells were stimulated with 5 μg/ml Salmonella abortus equi-derived endotoxin CLPS; Sigma Chemical Co., L-1887) or 50 ng/ml IL-1α (Genzyme; Cambridge, Mass.) with or without the addition of CT1501R added to the cultures one hour prior to addition of the stimulus. At various times thereafter, supernatants were removed and levels of either TNF-α or IL-1α were assayed using commercial 96-well microtiter immunoassay kits (Genzyme; TNF; Endogen, Boston, Mass.; IL-1α) according to manufacturer's specifications. […] After addition of […] Hanks Balanced Salt Solution (HBSS), the microtiter plate was then analyzed on a Millipore Cytofiuor fluorescent plate reader (excitation 488 nm; emission 525 nm). […]

Structure (SMILES): C[C@@H](O)CCCCn1c(=O)c2c(ncn2C)n(C)c1=O [CT1501R, (R)-1-(5-hydroxyhexyl)-3,7-dimethylxanthine]
- decrease of peak plasma IL-6 vs endotoxin only (IL-6; 3 hours post endotoxin): 1.7 fold
- decrease of peak plasma IL-6 vs endotoxin only (IL-6; 6 hours post endotoxin): 2.0 fold
- decrease of peak plasma IL-6 vs endotoxin only (IL-6; 12 hours post endotoxin): 4.1 fold
- relative adhesiveness of activated HUVEC for U937 cells ([1]; 1 hour prior to TNF-α, IL-1α or LPS): marked suppression in the relative adhesiveness
- background attachment of U937 cells to HUVEC ([1]; non-activated HUVEC): no significant effect on background attachment
